target: T1, RNR (RNR1:RNR2 1:1) (Homo sapiens, UniProt P23921); assay: RNR enzyme activity, rapid-fire mass spectrometry (RFMS) assay; type: biochemical; settings: RNR 50 nM, CDP 5 μM, ATP 1 mM, 37° C., 45 min, compounds screened up to 50 μM, read-out: RF/MS IC50
T1 sequence (P23921 1-792): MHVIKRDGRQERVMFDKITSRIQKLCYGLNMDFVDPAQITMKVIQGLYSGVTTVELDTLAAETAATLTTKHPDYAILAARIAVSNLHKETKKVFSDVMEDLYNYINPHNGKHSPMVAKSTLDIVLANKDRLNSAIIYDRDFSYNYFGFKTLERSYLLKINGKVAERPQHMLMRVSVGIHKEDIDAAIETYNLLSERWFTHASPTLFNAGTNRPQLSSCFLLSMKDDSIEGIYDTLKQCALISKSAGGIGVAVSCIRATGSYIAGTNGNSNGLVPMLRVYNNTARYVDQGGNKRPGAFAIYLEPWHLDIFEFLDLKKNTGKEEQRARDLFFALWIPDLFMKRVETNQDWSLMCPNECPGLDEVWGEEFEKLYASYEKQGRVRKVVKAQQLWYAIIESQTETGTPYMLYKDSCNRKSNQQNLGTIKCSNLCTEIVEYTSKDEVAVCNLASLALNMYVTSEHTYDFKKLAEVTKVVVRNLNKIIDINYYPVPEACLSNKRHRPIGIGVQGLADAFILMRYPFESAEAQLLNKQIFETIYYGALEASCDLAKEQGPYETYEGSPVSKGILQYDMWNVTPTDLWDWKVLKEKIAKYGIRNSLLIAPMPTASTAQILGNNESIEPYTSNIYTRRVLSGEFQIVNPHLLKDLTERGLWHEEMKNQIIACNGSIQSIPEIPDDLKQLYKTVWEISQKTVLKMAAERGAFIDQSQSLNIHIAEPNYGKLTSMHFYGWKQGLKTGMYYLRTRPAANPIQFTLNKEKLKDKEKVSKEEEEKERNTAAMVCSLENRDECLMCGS
Outline: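 Human RNR1:RNR2 (1:1, 50 nM) pre-incubated 15 min at room temperature with compound, then reacted with 5 μM CDP and 1 mM ATP, no NADPH, for 45 min at 37 °C. Stopped with 6% HCOOH; turnover read by rapid-fire mass spectrometry; Triapine and hydroxyurea as reference compounds.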

Compound | IC50 [µM]
Cc1ccc(F)c(C(C)[C@H](NS(=O)(=O)N2CCC(Cl)(C#N)CC2)c2n[nH]c(=O)o2)c1C (stereo partly drawn) [Example 101, 4-chloro-4-cyano-N-((1S)-2-(6-fluoro-2,3-dimethylphenyl)-1-(5-oxo-4,5-dihydro-1,3,4-oxadiazol-2-yl)propyl)piperidine-1-sulfonamide] | 0.1 to 1
Cc1ccc(F)c([C@@H](C)[C@H](NS(=O)(=O)N2CC3C(C2)C3(C)C)c2n[nH]c(=O)o2)c1C (stereo partly drawn) [Example 102, N-((1S,2R)-2-(6-fluoro-2,3-dimethylphenyl)-1-(5-oxo-4,5-dihydro-1,3,4-oxadiazol-2-yl)propyl)-6,6-dimethyl-3-azabicyclo[3.1.0]hexane-3-sulfonamide] | 0.1 to 1
Cc1ccc(F)c([C@H](C)[C@H](NS(=O)(=O)N2CC3C(C2)C3(C)C)c2n[nH]c(=O)o2)c1C (stereo partly drawn) [Example 103, N-((1S,2S)-2-(6-fluoro-2,3-dimethylphenyl)-1-(5-oxo-4,5-dihydro-1,3,4-oxadiazol-2-yl)propyl)-6,6-dimethyl-3-azabicyclo[3.1.0]hexane-3-sulfonamide] | 1 to 10
Cc1ccc(F)c([C@H](C)[C@H](NS(=O)(=O)N2CC3CC3C2)c2n[nH]c(=O)o2)c1C (stereo partly drawn) [Example 104, N-((1S,2S)-2-(6-fluoro-2,3-dimethylphenyl)-1-(5-oxo-4,5-dihydro-1,3,4-oxadiazol-2-yl)propyl)-3-azabicyclo[3.1.0]hexane-3-sulfonamide] | 10 to 100
Cc1ccc(F)c(C(C)[C@H](NS(=O)(=O)N2CC3C(C2)C3(F)F)c2n[nH]c(=O)o2)c1C (stereo partly drawn) [Example 106, 6,6-difluoro-N-((1S)-2-(6-fluoro-2,3-dimethylphenyl)-1-(5-oxo-4,5-dihydro-1,3,4-oxadiazol-2-yl)propyl)-3-azabicyclo[3.1.0]hexane-3-sulfonamide] | 0.1 to 1
Cc1ccc(F)c([C@@H](C)[C@H](NS(=O)(=O)N2CCc3cc(Cl)ccc3C2)c2n[nH]c(=O)o2)c1C [Example 107, 6-chloro-N-((1S,2R)-2-(6-fluoro-2,3-dimethylphenyl)-1-(5-oxo-4,5-dihydro-1,3,4-oxadiazol-2-yl)propyl)-3,4-dihydroisoquinoline-2(1H)-sulfonamide] | 0.1 to 1
Cc1ccc(F)c([C@@H](C)[C@H](NS(=O)(=O)N2CCc3ccc(Cl)c(Cl)c3C2)c2n[nH]c(=O)o2)c1C [Example 108, 7,8-dichloro-N-((1S,2R)-2-(6-fluoro-2,3-dimethylphenyl)-1-(5-oxo-4,5-dihydro-1,3,4-oxadiazol-2-yl)propyl)-3,4-dihydroisoquinoline-2(1H)-sulfonamide] | 0.1 to 1
Cc1ccc(F)c([C@@H](C)[C@H](NS(=O)(=O)N2CCCc3ccccc32)c2n[nH]c(=O)o2)c1C [Example 109, N-((1S,2R)-2-(6-fluoro-2,3-dimethylphenyl)-1-(5-oxo-4,5-dihydro-1,3,4-oxadiazol-2-yl)propyl)-3,4-dihydroquinoline-1(2H)-sulfonamide] | 1 to 10
Cc1ccc(F)c([C@@H](C)[C@H](NS(=O)(=O)N2C3CCC2CC(F)(F)C3)c2n[nH]c(=O)o2)c1C [Example 110, 3,3-difluoro-N-((1S,2R)-2-(6-fluoro-2,3-dimethylphenyl)-1-(5-oxo-4,5-dihydro-1,3,4-oxadiazol-2-yl)propyl)-8-azabicyclo[3.2.1]octane-8-sulfonamide] | 0.1 to 1
Cc1ccc(F)c(C(C)[C@H](NS(=O)(=O)N2CCC(F)(F)CC2C)c2n[nH]c(=O)o2)c1C (stereo partly drawn) [Example 111, 4,4-difluoro-N-((1S)-2-(6-fluoro-2,3-dimethylphenyl)-1-(5-oxo-4,5-dihydro-1,3,4-oxadiazol-2-yl)propyl)-2-methylpiperidine-1-sulfonamide] | 0.1 to 1
Cc1ccc(F)c(C(C)[C@H](NS(=O)(=O)N2CCCC2)c2n[nH]c(=O)o2)c1C (stereo partly drawn) [Example 112, N-((1S)-2-(6-fluoro-2,3-dimethylphenyl)-1-(5-oxo-4,5-dihydro-1,3,4-oxadiazol-2-yl)propyl)pyrrolidine-1-sulfonamide] | 1 to 10
